Common to all, as to format: in vitro ADME
The target of data set [1] is T1, CYP2D6 (Homo sapiens, UniProt P10635).
T1 construct: tissue Corning or Xenotech; host or cells: human liver microsomes
Briefly: CYP450 inhibition in human liver microsomes, CYP2D6. The following applies: pH 7.4, read-out: % CYP inhibition @ 10 µM 2D6. An excerpt: (§1) According to standard methods in the field for the study of cytochrome P450 enzyme systems, such as the method described in Kerns, Edward H. and Di Li et al., Drug-like Properties: Concepts, Structure Design and Methods: from ADME to Toxicity Optimization (2008), San Diego, Academic Press, and Lin, Tong et al., In Vitro Assessment of Cytochrome P450 Inhibition: Strategies for Increasing LC/MS-Based Assay Throughput Using a One-Point IC50 Method and Multiplexing High-Performance Liquid Chromatography (J. Pharm. Sci. 2007, 96 (9), 2485). The inhibitory effect of the disclosed compounds on the cytochrome P450 enzyme system was similarly examined below.
(§2) Human liver microsomes were purchased from Corning or Xenotech. The test compounds were evaluated by detecting the metabolism of substrates for different Cyp450 isoforms by human liver microsomes.
(§3) 0.1 M potassium phosphate buffer (K-buffer, pH 7.4) was pre-warmed.
(§4) 100 mM K-buffer was prepared by mixing 9.5 mL of stock solution A (1 M potassium dihydrogen phosphate, prepared by dissolving 136.5 g of potassium dihydrogen phosphate in 1 L of Milli-Q water) with 40.5 mL of stock solution B (1 M potassium hydrogen phosphate, prepared by dissolving 174.2 g of potassium hydrogen phosphate in 1 L of Milli-Q water). The total volume was adjusted to 500 mL with Milli-Q water, and the buffer was titrated to pH 7.4 using KOH or H3PO4.
(§5) Test compound solution and specific inhibitor solution (400× dilution) were prepared in a 96-well plate. For the test compound, 8 µL of 10 mM test compound was transferred into 12 µL of ACN. For specific inhibitors of CYP1A2, CYP2C9, and CYP2D6: 12 µL of 1 mM α-naphthoflavone, 10 µL of 40 mM sulfaphenazole, 10 µL of 10 mM quinidine, and 8 µL of DMSO were mixed. For specific inhibitors of CYP3A4, CYP2B6, CYP2C8, and CYP2C19: 8 µL of DMSO stock solution was added to 12 µL of ACN.
(§6) A 4× diluted NADPH solution was prepared by dissolving 66.7 mg of NADPH in 10 mL of 0.1 M K-buffer (pH 7.4). […]

Data set [2] has as its target T2, CYP2C19 (Homo sapiens, UniProt P33261).
T2 construct: tissue Corning or Xenotech; host or cells: human liver microsomes
Kind of data set: CYP450 inhibition in human liver microsomes, CYP2C19. The settings on record: pH 7.4, read-out: % CYP inhibition @ 10 µM 2C19.
Excerpt: as §1, §2, §3, §4, §5, §6

Data set [3] concerns the target T3, CYP3A4 (Homo sapiens, UniProt P08684).
T3 construct: tissue Corning or Xenotech; host or cells: human liver microsomes
Briefly: CYP450 inhibition in human liver microsomes, CYP3A4 (midazolam and testosterone substrates).
Excerpt: as §1, §2, §3, §4, §5
A 4× diluted NADPH solution was prepared by dissolving 66.7 mg of NADPH in 10 mL of 0.1 M K-buffer (pH 7.4). Human liver microsome (HLM) solutions were prepared in K-buffer, wherein 0.1 mg/mL for CYP1A2, CYP2C9, CYP2D6, CYP3A4, and CYP2B6, 0.5 mg/mL for CYP2C19, 0.2 mg/mL for CYP2C8. 4× diluted substrate dilution solutions (2 mL per isozyme) were prepared in K-buffer (HLM was added on ice if required) with the following concentrations: 120 µM for CYP1A2, 40 µM for CYP2C9, 140 µM with 1.6 mg/mL HLM for CYP2C19, 40 µM for CYP2D6, 320 µM and 20 µM for CYP3A4 (two concentrations), 280 µM for CYP2B6, 40 µM with 0.4 mg/mL HLM for CYP2C8.
A 0.2 mg/mL HLM solution was prepared on ice (by adding 10 µL of 20 mg/mL stock to 990 µL of 0.1 M K buffer). To the assay wells, 400 µL of the 0.2 mg/mL HLM solution was added, followed by 2 µL of the 400× diluted test compound solution, which was added on ice to the designated wells. To the assay wells, 200 µL of the 0.2 mg/mL HLM solution was added, followed by 1 µL of the specific inhibitor solution, which was added on ice to the designated wells. The following solutions were added in duplicate to the 96-well analysis plate kept on ice: 30 µL of the 2× diluted test compound solution and the specific inhibitor solution were added to the 0.2 mg/mL HLM solution, 15 µL of the 4× diluted substrate solution was added. The 96-well assay plate and the NADPH solution were pre-incubated at 37 °C for 5 min. The reaction was initiated by adding 15 µL of the pre-warmed 8 mM NADPH solution to the assay plate. Reactions were performed at 37 °C for the following durations according to the P450 isoform: 5 min for CYP3A4, 10 min for CYP1A2, CYP2B6, CYP2C8, CYP2C9, and CYP2D6, 45 min for CYP2C19. Reactions were terminated by adding 120 µL of ACN containing internal standards. The final internal standard concentrations were: 0.1 µM for CYP2C19, CYP1A2, CYP3A4 (midazolam), and CYP2D6, 200 ng/mL for CYP3A4 (testosterone), 0.31 µM for CYP2C9, 0.36 µM (100 ng/mL) for CYP2B6, 40 ng/mL for CYP2C8. […]

Where [4] appears, read: pH 7.4, probe midazolam, midazolam substrate, read-out: % CYP inhibition @ 10 µM 3A4 (midazolam).
Setting [5] is: pH 7.4, probe testosterone, testosterone substrate, read-out: % CYP inhibition @ 10 µM 3A4 (testosterone).

Read-outs that look alike come from different tables or passages of the source.

This is an account of results in EP4741383A1, “COMPOUND AND USE THEREOF AS ANTI-CANCER DRUG” (Tyligand Bioscience (Shanghai) Limited, priority 2023, dated 2025).

As usually defined, the inhibition is the drop in the measured response relative to a control, in per cent.

T3 sequence (P08684 whole entry): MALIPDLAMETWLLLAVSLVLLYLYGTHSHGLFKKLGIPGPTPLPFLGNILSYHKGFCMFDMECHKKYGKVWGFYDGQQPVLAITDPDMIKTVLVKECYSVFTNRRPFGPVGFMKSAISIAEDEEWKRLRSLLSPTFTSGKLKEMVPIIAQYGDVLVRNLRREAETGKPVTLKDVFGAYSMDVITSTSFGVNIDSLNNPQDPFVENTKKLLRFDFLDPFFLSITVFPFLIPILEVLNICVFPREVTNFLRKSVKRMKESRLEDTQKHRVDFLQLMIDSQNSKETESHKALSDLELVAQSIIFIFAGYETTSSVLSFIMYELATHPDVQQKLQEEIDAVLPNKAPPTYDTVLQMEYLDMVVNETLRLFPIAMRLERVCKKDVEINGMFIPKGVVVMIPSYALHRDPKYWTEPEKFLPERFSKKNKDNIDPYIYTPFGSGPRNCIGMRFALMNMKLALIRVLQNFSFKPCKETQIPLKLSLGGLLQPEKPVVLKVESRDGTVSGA
T1 sequence (P10635 whole entry): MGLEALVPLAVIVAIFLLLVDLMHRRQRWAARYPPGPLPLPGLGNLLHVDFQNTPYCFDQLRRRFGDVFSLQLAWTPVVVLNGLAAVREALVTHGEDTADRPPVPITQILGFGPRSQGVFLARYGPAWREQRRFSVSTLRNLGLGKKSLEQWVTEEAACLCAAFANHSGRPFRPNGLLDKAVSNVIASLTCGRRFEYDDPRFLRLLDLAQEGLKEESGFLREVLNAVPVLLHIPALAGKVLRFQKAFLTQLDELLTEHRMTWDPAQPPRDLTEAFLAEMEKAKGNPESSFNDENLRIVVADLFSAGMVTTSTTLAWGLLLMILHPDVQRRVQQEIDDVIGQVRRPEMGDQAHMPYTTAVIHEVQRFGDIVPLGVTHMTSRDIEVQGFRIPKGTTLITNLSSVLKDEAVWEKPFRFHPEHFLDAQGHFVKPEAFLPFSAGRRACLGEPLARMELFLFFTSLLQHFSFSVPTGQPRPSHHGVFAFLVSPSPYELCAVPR
T2 sequence (P33261 whole entry): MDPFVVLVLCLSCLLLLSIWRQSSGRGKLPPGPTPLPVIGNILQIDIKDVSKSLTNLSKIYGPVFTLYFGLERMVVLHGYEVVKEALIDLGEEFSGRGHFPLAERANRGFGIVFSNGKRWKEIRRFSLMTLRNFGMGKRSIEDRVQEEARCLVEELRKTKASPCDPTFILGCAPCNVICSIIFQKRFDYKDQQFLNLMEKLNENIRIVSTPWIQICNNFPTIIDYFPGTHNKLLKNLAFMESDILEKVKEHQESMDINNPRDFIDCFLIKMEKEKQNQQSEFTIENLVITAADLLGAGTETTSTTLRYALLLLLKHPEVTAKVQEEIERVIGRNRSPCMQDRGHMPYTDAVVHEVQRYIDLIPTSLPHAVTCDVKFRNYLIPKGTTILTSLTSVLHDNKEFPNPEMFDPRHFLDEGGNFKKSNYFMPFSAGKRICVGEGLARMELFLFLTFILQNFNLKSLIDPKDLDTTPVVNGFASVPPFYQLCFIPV

With `O=C(Nc1ccc(-c2cc3cc(F)c(-c4nnn[nH]4)cc3n2C2CCC2)cc1)C(=O)Nc1ccc(N2CCC3(CCOC3)CC2)cc1` [Example 67], in data set [1], the inhibition at 10 min, 10 µM is -12.6%. Besides, the inhibition at 45 min, 10 µM in data set [2] came to 13.9%. For the same compound, the inhibition at 5 min, 10 µM is 13% in data set [3] (setting [4]) and -0.87% in data set [3] (setting [5]).
Taken in the same sequence, the figures for `CC1(n2c(-c3ccc(NC(=O)C(=O)Nc4ccc(N5CCC6(CCOC6)CC5)cc4)cc3)cc3cc(F)c(-c4nnn[nH]4)cc32)CCC1` [Example 68] were -4.07%, 13.5%, -10.2% and 2.46%.
Taken in the same sequence, the figures for `O=C(Nc1ccc(-c2cc3cc(F)c(-c4nnn[nH]4)cc3n2C2CCC2)cc1)C(=O)Nc1ccc(N2CCC(CO)CC2)cc1` [Example 23] were -5.43%, 1.78%, 5.28% and -22.6%.
